# Read-outs that look alike come from different tables or passages of the source. Ends that are not written are not given here.
# Assays:
# [1] = tested on: Aerobic, mesophilic bacteria; assay type: cell-based
# [2] = tested on: L. monocytogenes; assay type: cell-based, Listeria monocytogenes
# [3] = tested on: E. coli O157:H7; assay type: cell-based, Escherichia coli O157:H7
# [4] = tested on: Salmonella spp.; assay type: cell-based
# [5] = tested on: Salmonella spp.; assay type: cell-based; remark: listed apart in the source
# [6] = tested on: L. monocytogenes; assay type: cell-based, Listeria monocytogenes; remark: listed apart in the source
# [7] = tested on: Aerobic mesophilic bacteria
# [8] = tested on: E. coli O157:H7; assay type: cell-based, Escherichia coli O157:H7; remark: listed apart in the source
# [9] = tested on: Aerobic mesophilic bacteria; remark: listed apart in the source
compound,measurement,setting,value
"O=C(O)CC(O)(CC(=O)O)C(=O)O [Citric Acid (10 mM), Citric acid]",Log reduction of aerobes on cantaloupe rind surface,[1],(1.2) log
same,Log reduction of L. monocytogenes on cantaloupe rind surface,[2],(2.0) log
same,Log reduction of E. coli O157:H7 on cantaloupe rind surface,[3],(1.5) log
same,Log reduction of Salmonella spp on cantaloupe rind surface,[4],(1.8) log
"nisin (ITSISLCTPGCKTGALMGCNMKTATCHCSIHVSK; not fully specified (some residues, bridges); cysteine pairing not given here; UniProt P13068 24-57, looked up) [Nisin (30 mg; (~10 μg/ml)]",Log reduction of aerobes on cantaloupe rind surface,[1],(1.2) log
same,Log reduction of L. monocytogenes on cantaloupe rind surface,[2],(3.6) log
"O=C(O)CN(CCN(CC(=O)O)CC(=O)O)CC(=O)O [EDTA (0.02 M), ethylenediaminetetraacetic acid]",Log reduction of aerobes on cantaloupe rind surface,[1],(0.4) log
same,Log reduction of L. monocytogenes on cantaloupe rind surface,[2],(0.2) log
same,Log reduction of E. coli O157:H7 on cantaloupe rind surface,[3],(0.3) log
same,Log reduction of Salmonella spp on cantaloupe rind surface,[4],(0.4) log
OO [hydrogen peroxide],Average population of Salmonella inactivated,[5],5.1 log
same,Average population of L. monocytogenes inactivated,[6],5.0 log
same,"Population of aerobic mesophilic bacteria, fresh-cut",[7],0.5 ± 0.10D Log10 CFU/g
same,Average population of E. coli O157:H7 inactivated,[8],5.5 log
same,"Population of aerobic mesophilic bacteria, fresh-cut",[9],0.3 ± 0.02D Log10 CFU/g
same,Log reduction of aerobes on cantaloupe rind surface,[1],(2.0) log
same,"Population of aerobic mesophilic bacteria, fresh-cut",[1],1.9 ± 0.10C Log10 CFU/g
same,Log reduction of L. monocytogenes on cantaloupe rind surface,[2],(3.4) log
same,Log reduction of E. coli O157:H7 on cantaloupe rind surface,[3],(2.9) log
same,Log reduction of Salmonella spp on cantaloupe rind surface,[4],(3.0) log
Sodium Lactate [Sodium Lactate (2%)],Log reduction of aerobes on cantaloupe rind surface,[1],(1.1) log
same,Log reduction of L. monocytogenes on cantaloupe rind surface,[2],(2.8) log
same,Log reduction of E. coli O157:H7 on cantaloupe rind surface,[3],(1.4) log
same,Log reduction of Salmonella spp on cantaloupe rind surface,[4],(1.5) log
"C/C=C/C=C/C(=O)O [Sorbic acid (0.03%), Sorbic acid]",Log reduction of aerobes on cantaloupe rind surface,[1],(1.1) log
same,Log reduction of L. monocytogenes on cantaloupe rind surface,[2],(2.2) log
same,Log reduction of E. coli O157:H7 on cantaloupe rind surface,[3],(1.8) log
same,Log reduction of Salmonella spp on cantaloupe rind surface,[4],(2.0) log

# From patent publication US20160302455A1, “Methods Of Producing An Antimicrobial Solution And Methods For Reducing Bacteria On Produce And/Or Minimizing Enzymatic Browning Of Produce” (priority 2015, published 2016)
